Test results as given in patent US20100316713A1, “PHARMACEUTICAL COMPOSITION” (priority 2007, published 2010).

Assay: stability of the drug substance in water
Type: physicochemical

**Q.** For `CN1CCN(c2nc(C3=C(c4c[nH]c5ccccc45)C(=O)NC3=O)c3ccccc3n2)CC1` [3-(1.H.-indol-3-yl)-4-[2-(4-methyl-piperazin-1-yl)-quinazolin-4-yl]-pyrrole-2,5-dione], which water sensitivity (may convert to free base hydrate, solvate or amorphous form in the presence of ethanol and/or water) is on record?
**A.** The water sensitivity was “water sensitive”.

**Q.** What about the degradation in water (water, renders aqueous granulation difficult) of the same molecule?
**A.** The degradation in water was “high degradation”.
